Format in all cases: functional, cell-based
Assay [1] has as its system U2OS. Description: Cytotoxicity against human U2OS cells expressing wild-type p53 after 24 hrs by crystal violet-staining based spectrophotometric assay.
Assay [2] can be described thus: Cytotoxicity against human Saos2 cells […] after 24 hrs by crystal violet-staining based spectrophotometric assay. As to conditions: SAOS-2, 24 h.
Assay [3] has as its system U2OS. Description: Cytotoxicity against human U2OS cells expressing wild-type p53 after 48 hrs by crystal violet-staining based spectrophotometric assay.
The nature of assay [4]: Cytotoxicity against human Saos2 cells […] after 48 hrs by crystal violet-staining based spectrophotometric assay. Conditions: SAOS-2, 48 h.

Results on 12 compounds are retold here after ChEMBL document CHEMBL3758089, “Giffonins J-P, Highly Hydroxylated Cyclized Diarylheptanoids from the Leaves of Corylus avellana Cultivar "Tonda di Giffoni"” (J Nat Prod, 2015).

A word on the EC50: it is the midpoint of the concentration-response curve. High values mean weaker potency, low ones greater potency.

For `C[C@H]1OC(Oc2c(-c3ccc(O)c(O)c3)oc3cc(O)cc(O)c3c2=O)[C@@H](O)[C@@H](O)[C@@H]1O` (stereo partly drawn), the 50% effective concentration (EC50) (in the assay with U2OS [1]; in assay [2]; in the assay with U2OS [3]; in assay [4]) was greater than 150 µM in each case.
As for `O=C1C[C@@H](O)Cc2ccc(O)c(c2)-c2cc(ccc2O)C[C@H](O)[C@H]1O`, the EC50 (in the assay on U2OS [1]; in assay [2]; in the assay on U2OS [3]; in assay [4]) was greater than 150 µM each time.
As for `COc1cc(/C=C/C(=O)CC(=O)/C=C/c2ccc(O)c(OC)c2)ccc1O` [CURCUMIN], the concentration giving a half-maximal response (EC50) in the assay on U2OS [1] worked out at 34.4 µM; in assay [2], 48.6 µM; in the assay with U2OS [3], 22.8 µM; in assay [4] it was 28.1 µM.
For the compound `C[C@H]1OC(Oc2c(-c3cc(O)c(O)c(O)c3)oc3cc(O)cc(O)c3c2=O)[C@@H](O)[C@@H](O)[C@@H]1O` (stereo partly drawn), the EC50 (in the assay with U2OS [1]; in assay [2]; in the assay with U2OS [3]; in assay [4]) was greater than 150 µM throughout.
Take `COc1c2cc(c(OC)c1O)Oc1ccc(cc1)[C@@H](O)C[C@@H](O)/C=C/C=C\2`: the EC50 (in the assay with U2OS [1]; in assay [2]; in the assay with U2OS [3]; in assay [4]) was greater than 150 µM throughout.
On to `Oc1ccc2cc1-c1cc(ccc1O)C[C@H](O)[C@H](O)C(O)[C@@H](O)[C@H](O)C2` (stereo partly drawn), for which the EC50 (in the assay with U2OS [1]; in assay [2]; in the assay with U2OS [3]; in assay [4]) was greater than 150 µM each time.
For `Oc1ccc2cc1-c1cc(ccc1O)C[C@H](O)[C@@H](O)[C@@H](O)C[C@@H](O)C2`, the 50% effective concentration (EC50) (with U2OS [1]; in assay [2]; in the assay with U2OS [3]; in assay [4]) was greater than 150 µM in each case.
Regarding `C[C@H]1OC(Oc2c(-c3ccc(O)cc3)oc3cc(O)cc(O)c3c2=O)[C@@H](O)[C@@H](O)[C@@H]1O` (stereo partly drawn), the EC50 (in the assay on U2OS [1]; in assay [2]; with U2OS [3]; in assay [4]) was greater than 150 µM throughout.
With `C[C@H]1OC(Oc2c(-c3ccc(O)cc3)oc3cc(O)cc(O)c3c2=O)[C@@H](O)[C@@H](O)[C@@H]1OC(=O)/C=C/c1ccc(O)cc1` (stereo partly drawn), the concentration for a half-maximal effect (EC50) (with U2OS [1]; in assay [2]; in the assay with U2OS [3]; in assay [4]) was greater than 150 µM in each case.
For `O=C1CCc2ccc(O)c(c2)-c2cc(ccc2O)C[C@H](O)C[C@H]1O`, the concentration giving a half-maximal response (EC50) (in the assay on U2OS [1]; in assay [2]; in the assay with U2OS [3]; in assay [4]) was greater than 150 µM each time.
As for `COc1c2cc(c(OC)c1O)Oc1ccc(cc1)[C@@H](O)C[C@@H](O)CC/C=C\2`, the concentration giving a half-maximal response (EC50) (with U2OS [1]; in assay [2]; in the assay on U2OS [3]; in assay [4]) was greater than 150 µM throughout.
Consider `O=C1CCc2ccc(O)c(c2)-c2cc(ccc2O)C[C@H](O[C@@H]2O[C@H](CO)[C@H](O)[C@@H](O)[C@H]2O)C[C@H]1O`, for which the concentration for a half-maximal effect (EC50) (in the assay on U2OS [1]; in assay [2]; in the assay with U2OS [3]; in assay [4]) was greater than 150 µM each time.
